US9487510B2, “Substituted heterocyclic acetamides as kappa opioid receptor (KOR) agonists” (Dr. Reddy's Laboratories Ltd., priority 2012, dated 2016)
Where a name gives a salt, the structure may show the parent alone.

Target: human KOR receptor (Homo sapiens, UniProt P41145)
Assay: IP-One HTRF assay, potency of KOR agonists, dose-response in transiently transfected COS-7 cells
Assay type: cell-based

Chain of human KOR receptor (P41145 whole entry): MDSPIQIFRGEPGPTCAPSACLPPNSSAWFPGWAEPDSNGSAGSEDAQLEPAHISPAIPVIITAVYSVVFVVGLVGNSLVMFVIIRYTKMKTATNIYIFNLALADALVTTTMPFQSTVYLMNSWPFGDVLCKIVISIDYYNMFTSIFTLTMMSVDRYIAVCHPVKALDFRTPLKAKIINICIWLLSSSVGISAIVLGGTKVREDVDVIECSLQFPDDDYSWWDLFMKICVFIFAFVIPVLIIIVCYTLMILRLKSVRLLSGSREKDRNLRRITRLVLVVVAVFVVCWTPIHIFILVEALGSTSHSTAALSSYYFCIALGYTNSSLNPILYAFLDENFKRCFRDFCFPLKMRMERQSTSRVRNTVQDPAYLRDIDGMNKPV

## CN(C(=O)Cc1ccc2c(c1)N(C)S(=O)(=O)C2)[C@H](CN1CC[C@H](O)C1)c1cccc(OCC(=O)O)c1 [Example 80, 2-(3-((S)-2-((S)-3-hydroxypyrrolidin-1-yl)-1-(N-methyl-2-(1-methyl-2,2-dioxido-1,3-dihydrobenzo[c]isothiazol-6-yl)acetamido)ethyl)phenoxy)acetic acid]
  EC50: ≤ 50 nM

## CC(C)(C)OC(=O)Cn1c(=O)oc2ccc(CC(=O)N[C@H](CN3CCCC3)c3ccccc3)cc21 [Example 82, (S)-tert-butyl-2-(2-oxo-5-(2-oxo-2-(1-phenyl-2-(pyrrolidin-1-yl)ethylamino)ethyl)benzo[d]oxazol-3(2H)-yl)acetate]
  EC50: ≤ 50 nM

## O=C(O)Cn1c(=O)oc2ccc(CC(=O)N[C@H](CN3CCCC3)c3ccccc3)cc21 [Example 83, (S)-2-(2-oxo-5-(2-oxo-2-(1-phenyl-2-(pyrrolidin-1-yl)ethylamino)ethyl)benzo[d]oxazol-3(2H)-yl)acetic acid hydrochloride]
  EC50: ≤ 50 nM

## O=C(O)COc1cccc([C@@H](CN2CCCC2)NC(=O)Cc2ccc3oc(=O)[nH]c3c2)c1 [Example 85, (S)-2-(3-(1-(2-(2-oxo-2,3-dihydrobenzo[d]oxazol-5-yl)acetamido)-2-(pyrrolidin-1-yl)ethyl)phenoxy)acetic acid hydrochloride]
  EC50: ≤ 50 nM

## CN(C(=O)Cc1ccc2oc(=O)n(CC(=O)O)c2c1)[C@H](CN1CC[C@H](O)C1)c1ccccc1 [Example 86]
  EC50: ≤ 50 nM

## CN(C(=O)Cc1ccc2oc(=O)[nH]c2c1)C(CN1CC[C@H](O)C1)c1cccc(OCC(=O)O)c1 (stereo partly drawn) [Example 94, (S)-2-(3-(2-(3-hydroxypyrrolidin-1-yl)-1-(N-methyl-2-(2-oxo-2,3-dihydrobenzo[d]oxazol-5-yl)acetamido)ethyl)phenoxy)acetic acid triflouro acetate]
  EC50: ≤ 50 nM

## CN(C(=O)Cc1ccc2c(c1)NC(=O)C2)C(CN1CC[C@H](O)C1)c1cccc(OCC(=O)O)c1 (stereo partly drawn) [Example 95, (S)-2-(3-(2-(3-hydroxypyrrolidin-1-yl)-1-(N-methyl-2-(2-oxoindolin-6-yl)acetamido)ethyl)phenoxy) acetic acid hydrochloride]
  EC50: ≤ 50 nM

## COC(=O)c1ccc(Cn2c(=O)oc3ccc(CC(=O)N(C)[C@H](CN4CC[C@H](O)C4)c4ccccc4)cc32)cc1 [Example 98, Methyl 4-((5-(2-(((S)-2-((S)-3-hydroxypyrrolidin-1-yl)-1-phenylethyl)(methyl)amino)-2-oxoethyl)-2-oxobenzo[d]oxazol-3(2H)-yl)methyl)benzoate]
  EC50: ≤ 50 nM

## CN(C(=O)Cc1ccc2c(c1)NC(=O)C2)[C@H](CN1CC[C@H](O)C1)c1cccc(OCc2nn[nH]n2)c1 [Example 112, N-((S)-1-(3-((2H-tetrazol-5-yl)methoxy)phenyl)-2-((S)-3-hydroxypyrrolidin-1-yl)ethyl)-N-methyl-2-(2-oxoindolin-6-yl)acetamide]
  EC50: 51 to 100 nM

## O=C1COc2ccc(CC(=O)N[C@H](CN3CCCC3)c3ccccc3)cc2N1 [Example 114, (S)-2-(3-oxo-3,4-dihydro-2H-benzo[b][1,4]oxazin-6-yl)-N-(1-phenyl-2-(pyrrolidin-1-yl)ethyl)acetamide]
  EC50: ≤ 50 nM

## O=C(Cc1ccc2sc(=S)[nH]c2c1)N[C@H](CN1CC[C@H](O)C1)c1ccccc1 [Example 118, N-((S)-2-((S)-3-hydroxypyrrolidin-1-yl)-1-phenylethyl)-2-(2-thioxo-2,3-dihydrobenzo[d]thiazol-5-yl)acetamide]
  EC50: ≤ 50 nM

## O=C1CS(=O)(=O)c2ccc(CC(=O)N[C@H](CN3CCCC3)c3ccccc3)cc2N1 [Example 121, (S)-2-(1,1-dioxido-3-oxo-3,4-dihydro-2H-benzo[b][1,4]thiazin-6-yl)-N-(1-phenyl-2-(pyrrolidin-1-yl)ethyl)acetamide]
  EC50: ≤ 50 nM

## O=C1CS(=O)(=O)c2ccc(CC(=O)N[C@H](CN3CC[C@H](O)C3)c3ccccc3)cc2N1 [Example 122, 2-(1,1-dioxido-3-oxo-3,4-dihydro-2H-benzo[b][1,4]thiazin-6-yl)-N-((S)-2-((S)-3-hydroxypyrrolidin-1-yl)-1-phenylethyl)acetamide]
  EC50: ≤ 50 nM

## CN(C(=O)Cc1ccc2c(c1)NC(=O)CS2(=O)=O)[C@H](CN1CC[C@H](O)C1)c1cccc(C(F)(F)F)c1 [Example 123, 2-(1,1-dioxido-3-oxo-3,4-dihydro-2H-benzo[b][1,4]thiazin-6-yl)-N-((S)-2-((S)-3-hydroxypyrrolidin-1-yl)-1-(3-(trifluoromethyl)phenyl)ethyl)-N-methylacetamide]
  EC50: ≤ 50 nM

## CN(C(=O)Cc1ccc2c(c1)NC(=O)CS2(=O)=O)[C@H](CN1CC[C@H](O)C1)c1cccc(F)c1 [Example 124, 2-(1,1-dioxido-3-oxo-3,4-dihydro-2H-benzo[b][1,4]thiazin-6-yl)-N-((S)-1-(3-fluorophenyl)-2-((S)-3-hydroxypyrrolidin-1-yl)ethyl)-N-methylacetamide]
  EC50: ≤ 50 nM

## CN(C(=O)Cc1ccc2c(c1)NC(=O)CS2(=O)=O)[C@H](CN1CC[C@H](O)C1)C1CCCCC1 [Example 125, N-((S)-1-cyclohexyl-2-((S)-3-hydroxypyrrolidin-1-yl)ethyl)-2-(1,1-dioxido-3-oxo-3,4-dihydro-2H-benzo [b][1,4]thiazin-6-yl)-N-methylacetamide]
  EC50: ≤ 50 nM

## COc1cccc([C@@H](CN2CC[C@H](O)C2)N(C)C(=O)Cc2ccc3c(c2)NC(=O)CS3(=O)=O)c1 [Example 126, 2-(1,1-dioxido-3-oxo-3,4-dihydro-2H-benzo[b][1,4]thiazin-6-yl)-N-((S)-2-((S)-3-hydroxypyrrolidin-1-yl)-1-(3-methoxyphenyl)ethyl)-N-methylacetamide]
  EC50: ≤ 50 nM

## O=C1CSc2ccc(CC(=O)N[C@H](CN3CCCC3)c3ccccc3)cc2N1 [Example 127, (S)-2-(3-oxo-3,4-dihydro-2H-benzo [b][1,4]thiazin-6-yl)-N-(1-phenyl-2-(pyrrolidin-1-yl)ethyl)acetamide]
  EC50: ≤ 50 nM

## O=C1CSc2ccc(CC(=O)N[C@H](CN3CC[C@H](O)C3)c3ccccc3)cc2N1 [Example 128, N-((S)-2-((S)-3-hydroxypyrrolidin-1-yl)-1-phenylethyl)-2-(3-oxo-3,4-dihydro-2H-benzo[b][1,4]thiazin-6-yl)acetamide]
  EC50: ≤ 50 nM

## CN(C(=O)Cc1ccc2c(c1)NC(=O)CS2)[C@H](CN1CCCC1)c1ccccc1 [Example 129, (S)-N-methyl-2-(3-oxo-3,4-dihydro-2H-benzo [b][1,4]thiazin-6-yl)-N-(1-phenyl-2-(pyrrolidin-1-yl)ethyl)acetamide]
  EC50: ≤ 50 nM

## CN(C(=O)Cc1ccc2c(c1)NC(=O)CS2)C(CN1CC[C@H](O)C1)C1CCOCC1 (stereo partly drawn) [Example 130, N-(2-((S)-3-hydroxypyrrolidin-1-yl)-1-(tetrahydro-2H-pyran-4-yl)ethyl)-N-methyl-2(3-oxo-3,4-dihydro-2H-benzo[b][1,4]thiazin-6-yl)acetamide]
  EC50: ≤ 50 nM

## COc1cccc([C@@H](CN2CC[C@H](O)C2)N(C)C(=O)Cc2ccc3c(c2)NC(=O)CS3)c1 [Example 131, N-((S)-2-((S)-3-hydroxypyrrolidin-1-yl)-1-(3-methoxyphenyl)ethyl)-N-methyl-2-(3-oxo-3,4-dihydro-2H-benzo[b][1,4]thiazin-6-yl)acetamide]
  EC50: ≤ 50 nM

## CN(C(=O)Cc1ccc2c(c1)NC(=O)CS2)[C@H](CN1CC[C@H](O)C1)c1cccc(C(F)(F)F)c1 [Example 132, N-((S)-2-((S)-3-hydroxypyrrolidin-1-yl)-1-(3-(trifluoromethyl)phenyl)ethyl)-N-methyl-2-(3-oxo-3,4-dihydro-2H-benzo[b][1,4]thiazin-6-yl)acetamide]
  EC50: ≤ 50 nM

## CN(C(=O)Cc1ccc2c(c1)NC(=O)CS2)[C@H](CN1CC[C@H](O)C1)c1cccc(F)c1 [Example 133, N-((S)-1-(3-fluorophenyl)-2-((S)-3-hydroxypyrrolidin-1-yl)ethyl)-N-methyl-2-(3-oxo-3,4-dihydro-2H-benzo[b][1,4]thiazin-6-yl)acetamide]
  EC50: ≤ 50 nM

## CN(C(=O)Cc1ccc2c(c1)NC(=O)CS2)[C@H](CN1CC[C@H](O)C1)c1cccc(OC(F)(F)F)c1 [Example 134, N-((S)-2-((S)-3-hydroxypyrrolidin-1-yl)-1-(3-(trifluoromethoxy)phenyl)ethyl)-N-methyl-2-(3-oxo-3,4-dihydro-2H-benzo[b][1,4]thiazin-6-yl)acetamide]
  EC50: ≤ 50 nM

## CN(C(=O)Cc1ccc2c(c1)N(Cc1ccccc1)S(=O)(=O)C2)[C@H](CN1CC[C@H](O)C1)c1ccccc1 [Example 135, 2-(1-benzyl-2,2-dioxido-1,3-dihydrobenzo[c]isothiazol-6-yl)-N-((S)-2-((S)-3-hydroxypyrrolidin-1-yl)-1-phenylethyl)-N-methylacetamide]
  EC50: ≤ 50 nM

## CCCN(C(=O)Cc1ccc2c(c1)NC(=O)CS2(=O)=O)[C@H](CN1CC[C@H](O)C1)c1cccc(OC(F)(F)F)c1 [Example 137, 2-(1,1-dioxido-3-oxo-3,4-dihydro-2H-benzo[b][1,4]thiazin-6-yl)-N-((S)-2-((S)-3-hydroxypyrrolidin-1-yl)-1-(3-(trifluoromethoxy)phenyl)ethyl)-N-propylacetamide]
  EC50: ≤ 50 nM

## CC(C)N(C(=O)Cc1ccc2c(c1)NC(=O)CS2(=O)=O)[C@H](CN1CC[C@H](O)C1)c1cccc(OC(F)(F)F)c1 [Example 138, 2-(1,1-dioxido-3-oxo-3,4-dihydro-2H-benzo[b][1,4]thiazin-6-yl)-N-((S)-2-((S)-3-hydroxypyrrolidin-1-yl)-1-(3-(trifluoromethoxy)phenyl)ethyl)-N-isopropylacetamide]
  EC50: 51 to 100 nM

## O=C1CS(=O)(=O)c2ccc(CC(=O)N(C3CC3)[C@H](CN3CC[C@H](O)C3)c3cccc(OC(F)(F)F)c3)cc2N1 [Example 139]
  EC50: ≤ 50 nM

## CN(C(=O)Cc1ccc2c(c1)NC(=O)C(C)(C)S2)[C@H](CN1CC[C@H](O)C1)c1cccc(OC(F)(F)F)c1 [Example 143, 2-(2,2-dimethyl-3-oxo-3,4-dihydro-2H-benzo[b][1,4]thiazin-6-yl)-N-((S)-2-((S)-3-hydroxypyrrolidin-1-yl)-1-(3-(trifluoromethoxy)phenyl)ethyl)-N-methylacetamide]
  EC50: ≤ 50 nM
